Assay results reported in patent publication US10865203B2, “Ligands selective to alpha 6 subunit-containing GABAA receptors and their methods of use” (UWM Research Foundation, Inc., priority 2015, dated 2020).
“Also recorded” adds a separate entry of the source. Where two headings read alike, the source gives them in different places.

Experiments:
α1,4,6β3δ receptors = experiment: Electrophysiology in Xenopus oocytes, delta-containing receptors; assay type: cell-based, rat
Method: Mature female Xenopus laevis (Nasco, Fort Atkinson, Wis., USA) were anaesthetized in a bath of ice-cold 0.17% Tricain (Ethyl-m-aminobenzoat, Sigma-Aldrich, St. Louis, Mo., USA) before decapitation and transfer of the frog's ovary to ND96 medium (96 mM NaCl, 2 mM KCl, 1 mM MgCl2, 5 mM HEPES; pH 7.5). Following incubation in 1 mg/mL collagenase (Sigma-Aldrich, St. Louis, Mo., USA) for 30 min, stage 5 to 6 oocytes were singled out of the ovary and defolliculated using a platinum wire loop. Oocytes were stored and incubated at 18° C. in NDE medium (96 mM NaCl, 2 mM KCl, 1 mM MgCl2, 5 mM HEPES, 1.8 mM CaCl2; pH 7.5) that was supplemented with 100 U per mL-1 penicillin, 100 μg per mL-1 streptomycin and 2.5 mM pyruvate. Oocytes were injected with an aqueous solution of mRNA. A total of 2.5 ng of mRNA per oocyte was injected. Subunit ratio was 1:1:5 for αxβγ2 (x=1, 2, 3, 5) and 3:1:5 for α4/6β3γ2 and αβδ receptors. Injected oocytes were incubated for at least 36 h before electrophysiological recordings. Oocytes were placed on a nylon-grid in a bath of NDE medium. For current measurements, the oocytes were impaled with two microelectrodes (2-3MΩ), which were filled with 2 M KCl. The oocytes were constantly washed by a flow of 6 mL per min-1 NDE that could be switched to NDE containing GABA and/or drugs. […] All recordings were performed at room temperature at a holding potential of −60 mV using a Warner OC-725C TEV (Warner Instrument, Hamden, Conn., USA) or a Dagan CA-1B Oocyte Clamp or a Dagan TEV-200A TEV (Dagan Corporation, Mineapolis, Minn., USA). Data were digitized using a Digidata 1322A or 1550 data acquisition system (Axon Instruments, Union City, Calif., USA), recorded using Clampex 10.5 software (Molecular Devices, Sunnyvale, Calif., USA), and analyzed using Clampfit 10.5 and GraphPad Prism 6.0 (La Jolla, Calif., USA) software. Concentration-response data were fitted using the Hill equation. Data are given as mean±SEM from at least three oocytes of two batches.
For selected test compounds full dose response curves were recorded in α1-6β3γ2 receptors. For selected compounds, dose response curves in additional receptor subtypes (α1, 4, 6β3δ, α6β1, 2γ2, α1-6β3) were also obtained. For a wider panel of compounds, a two point screening pharmacology was obtained at 1 and 10 μM compound concentrations.

[1] = system: binary αxβ3 (x=1, 2, 3, 5) receptors; experiment: Electrophysiology in Xenopus oocytes, binary receptors; assay type: cell-based, rat
Method: Mature female Xenopus laevis (Nasco, Fort Atkinson, Wis., USA) were anaesthetized in a bath of ice-cold 0.17% Tricain (Ethyl-m-aminobenzoat, Sigma-Aldrich, St. Louis, Mo., USA) before decapitation and transfer of the frog's ovary to ND96 medium (96 mM NaCl, 2 mM KCl, 1 mM MgCl2, 5 mM HEPES; pH 7.5). Following incubation in 1 mg/mL collagenase (Sigma-Aldrich, St. Louis, Mo., USA) for 30 min, stage 5 to 6 oocytes were singled out of the ovary and defolliculated using a platinum wire loop. Oocytes were stored and incubated at 18° C. in NDE medium (96 mM NaCl, 2 mM KCl, 1 mM MgCl2, 5 mM HEPES, 1.8 mM CaCl2; pH 7.5) that was supplemented with 100 U per mL-1 penicillin, 100 μg per mL-1 streptomycin and 2.5 mM pyruvate. Oocytes were injected with an aqueous solution of mRNA. A total of 2.5 ng of mRNA per oocyte was injected. Subunit ratio was 1:1:5 for αxβγ2 (x=1, 2, 3, 5) and 3:1:5 for α4/6β3γ2 and αβδ receptors. Injected oocytes were incubated for at least 36 h before electrophysiological recordings. Oocytes were placed on a nylon-grid in a bath of NDE medium. For current measurements, the oocytes were impaled with two microelectrodes (2-3MΩ), which were filled with 2 M KCl. The oocytes were constantly washed by a flow of 6 mL per min-1 NDE that could be switched to NDE containing GABA and/or drugs. Drugs were diluted into NDE from DMSO solutions resulting in a final concentration of 0.1% DMSO. Maximum currents measured in mRNA injected oocytes were in the microampere range for all receptor subtypes. […] Data were digitized using a Digidata 1322A or 1550 data acquisition system (Axon Instruments, Union City, Calif., USA), recorded using Clampex 10.5 software (Molecular Devices, Sunnyvale, Calif., USA), and analyzed using Clampfit 10.5 and GraphPad Prism 6.0 (La Jolla, Calif., USA) software. […]
For selected test compounds full dose response curves were recorded in α1-6β3γ2 receptors. […]

[2] = Microsomal stability assay, mouse liver microsomes; assay type: in vitro ADME; conditions: for stability in Mouse liver microsomes: Table 2
Method in brief: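 Test compound at 10 μM was preincubated 5 min at 37 °C in phosphate buffer pH 7.4 with NADPH regenerating system, then started with human or mouse liver microsomes at 0.5 mg/mL protein. Samples were taken at 0–60 min and quenched in cold acetonitrile with internal standard. Slope k came from ln peak-area ratio versus time, three repeats in duplicate.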

[3] = 10 μM test compound, 0.5 mg/mL protein, 37° C.

Row | SMILES | α6 preference among α1,4,6β3δ receptors (α1,4,6β3δ receptors) | efficacy in binary αxβ3 receptors [1] | % left after 1 hr. (MLM) [2, 3] | Half-life (min) (MLM) [2, 3] | stability in Mouse liver microsomes [2] | higher stability compared to non-Deuterated (DK-II-13-1) ([2]; mouse liver microsomes) | α6 preference among α1,4,6β3δ receptors (α1,4,6β3δ receptors; listed as compound 6) | half-life at 10 μM ([2]; mouse, liver microsomes, pH 7.4, 10 μM test compound, 0.5 mg/mL protein, 37° C., read-out: Half-life (min) (MLM))
1 | COc1ccc(-n2nc3c4ccc(Br)cc4[nH]cc-3c2=O)cc1 [LAU 463, 7-Bromo-2-(4-methoxyphenyl)-2,5-dihydro-3H-pyrazolo[4,3-c]quinolin-3-one] | α6 preference | low efficacy | 69 ± 0.16% | 113.17 ± 5.15 min |  |  |  | 
2 | [2H]C([2H])([2H])Oc1ccc(-n2nc3c4ccc(OC)cc4[nH]cc-3c2=O)cc1 [DK-I-56-1, 7-Methoxy-2-(4-methoxy-d3-phenyl)-2,5-dihydro-3H-pyrazolo[4,3-c]quinolin-3-one] |  |  | 92.8 ± 0.09% | 628.8 ± 73 min |  |  |  | 
3 | COc1cccc(-n2nc3c4cc(Cl)ccc4[nH]cc-3c2=O)c1 [LAU 159, 8-Chloro-2-(3-methoxyphenyl)-2,5-dihydro-3H-pyrazolo[4,3-c]quinolin-3-one] | preferentially modulate the α6β3δ receptor; also recorded: α6 preference | low efficacy | 59.83 ± 0.23% | 89.07 ± 5.22 min | ~60% |  |  | 
4 | [2H]C([2H])([2H])Oc1ccc2c3nn(-c4ccc(OC)nc4)c(=O)c-3c[nH]c2c1 [DK-I-86-1, 7-Methoxy-d3-2-(6-methoxypyridin-3-yl)-2,5-dihydro-3H-pyrazolo[4,3-c]quinolin-3-one] |  |  | 91.3 ± 0.12% | 550.6 ± 78 min |  | ~20% |  | 
5 | COc1ccc(-n2nc3c4ccc(OC)cc4[nH]cc-3c2=O)cc1 [Compound 6, 7-Methoxy-2-(4-methoxyphenyl)-2,5-dihydro-3H-pyrazolo[4,3-c]quinolin-3-one] | α6 preference | low efficacy | 80.35 ± 0.14% |  | 80% |  | preferentially modulate the α6β3δ receptor | 194 ± 11.4 min
